In patent US20230190778A1, “COMPOSITION COMPRISING GLUCOSE OLIGOSACCHARIDE AND PROCESS FOR MAKING THE SAME AND USE THEREOF” (CARGILL, INCORPORATED, priority 2020, published 2023):

Experiments:
[1] = test system: developing embryos (unhatched chicks); experiment: In ovo trial (hatchability / safety); format: in vivo, chicken; conditions: 1 mL injected in ovo at 17 days of incubation; at up to just 0.006 mg; FIG. 4
Method: The trials were thus carried out to indicate safety of the compound according to the invention in animals In this case, a comparison was made with Example 3, a commercially available conjugated linoleic acid (CLA). It is known that CLA may modulate the immune system.
480 eggs we incubated under standard conditions. They were divided unto 8 groups of 10 eggs replicated 6 times. At 17 days of incubation eggs were injected with 1 mL of the respective solution of Example 1 and Example 3 at increasing concentrations. The intention was to deliver into the amniotic fluid to be orally consumed and digested by the developing embryos according to the method described by (Uni et al., 2005, Poult Sci 84:764-770). At day of hatch, hatched chicks as well as remaining non-hatched eggs were counted and % hatchability was calculated to indicate safety of injected materials by not causing mortality.

[2] = test system: chicken macrophage-like cell line HD11; experiment: Nitric oxide (NO)-production assay (Griess); format: cell-based; conditions: HD11 cells
Method: A nitric oxide production assay using chicken macrophage-like cell line HD11, as also described by Biggelaar et al., Vaccines 2020, 8(2), 332, was carried out to compare immune responses in terms of NO production of the glucose-oligosaccharide according to Example 1 and a prior art glucose-oligosaccharide fibre according to Example 2.
To obtain a standard NO calibration curve, the Griess assay was used as described by Biggelaar et al.
On day 1 HD11 cell were seeded, day 2 compounds were added at different concentrations i.e. at 10 ppm, 50 ppm and 100 ppm. […] Compounds were tested in triplicate per NO assay i.e. in total 3 series of NO assays were performed per compound per concentration.
(NB: Negative output implies zero NO production. Negative values arise due to the calculation based on the standard NO calibration curve. Negative output can be seen as 0 NO production.)

Substance: conjugated linoleic acid [Example 3]
- hatchability [1]: Not all of the chicks hatched

Substance: Lipopolysaccharide [LPS]
- NO production (positive control) [2]: high NO production
